Source: patent US8933114B2, “Polymorphic forms of asenapine maleate and processes for their preparation” (Chemo Iberica, S.A., priority 2010, dated 2015)
Counter-ions that a name gives are not always drawn.

How the values were obtained:
[1] = stability of the polymorphic forms at room temperature; assay type: physicochemical; conditions: solid form
[2] = micronization step starting from the monoclinic form; cited from earlier work
[3] = solid-state stability of the freeze-dried amorphous form upon standing; assay type: physicochemical; conditions: amorphous form prepared by freeze-drying
From the text: WO 2008/040816 discloses an amorphous form of asenapine maleate, prepared via spray-drying or freeze-drying processes.

Compound: CN1C[C@H]2c3ccccc3Oc3ccc(Cl)cc3[C@@H]2C1 [Form G, asenapine maleate]
- stability at room temperature [1]: stable at room temperature

Compound: CN1C[C@H]2c3ccccc3Oc3ccc(Cl)cc3[C@@H]2C1 [Form H, asenapine maleate]
- polymorphic form obtained after micronization [2]: an unpredictable mixture of Form H and Form L is obtained

Compound: CN1C[C@H]2c3ccccc3Oc3ccc(Cl)cc3[C@@H]2C1 [amorphous form, asenapine maleate]
- stability of solid form upon standing [3]: not stable, and spontaneously converts into Form H upon standing
